Source: patent US6127342A, “Method for preventing or treating a lung disease caused by active oxygen and free radical injury” (Teijin Limited, priority 1991, dated 2000)

Experiments:
Type in all cases: in vivo
[1] = system: coronary ischemia-reperfusion model using dogs; assay: Arrhythmia during coronary ischemia and reperfusion (electrocardiogram); conditions: dog; for Number of Ventricular Premature Beats, 1 Hour of Reperfusion / Total Duration of Ventricular Tachycardia, 1 Hour of Reperfusion / effect on total duration of ventricular tachycardia during reperfusion / occurrence of arrhythmia (ventricular premature beats) during reperfusion: 10 mg/kg i.v. just before reperfusion; for Number of Ventricular Premature Beats, 2 Hours of Ischemia / Total Duration of Ventricular Tachycardia, 2 Hours of Ischemia: during 2 h ischemia, before the drug was given
Method: (§1) After anesthetizing 52 adult mongrel dogs of either sex weighing ca. 10 kg by intraperitoneal administration of 50 mg/kg of sodium pentobarbital, breathing tubes were immediately intubated endotracheally and artificial ventilation was continued using a Harvard ventilator. Electrocardiogram electrodes were attached, and monitoring and recording were continued throughout the experiment. Following insertion of cannulas in the right femoral vein and right femoral artery, the cannulas were used for continuous intravenous drip of physiological saline to replenish water or administration of the test preparation, and monitoring of arterial blood pressure, respectively. After performing left thoracotomy in the fourth or fifth intercostal space, the pericardium was torn to expose the heart. Ischemia was induced by ligating the left anterior descending coronary artery immediately distal to the first diagonal branch, while reperfusion was performed by subsequently removing that ligation.
(§2) The animals were divided into four groups. Group 1 (n=9) was subjected to ischemia for 2 hours, group 2 (n=17) was subjected to ischemia for 2 hours followed by reperfusion for 1 hour, group 3 (n=10) was subjected to ischemia for 2 hours followed by reperfusion for 1 hour plus intravenous injection of 10 mg/kg of γ-GCE just before reperfusion, and group 4 (n=16) was subjected to 2 hours of ischemia followed by 1 hour of reperfusion plus intravenous injection of 10 mg/kg of reduced glutathione (GSH, control drug) just before reperfusion.
Evaluation of arrhythmia was performed by analyzing the electrocardiogram to determine the presence of arrhythmia, or in other words, the number of ventricular premature beats, as well as the total duration of ventricular tachycardia, which was defined as more than three successive ventricular premature beats.

[2] = system: coronary ischemia-reperfusion model using dogs; assay: Mortality during coronary ischemia-reperfusion in dogs; conditions: dog; for Mortality rate (number of dogs that died / number of dogs in experiment), 1 hour of reperfusion: 1 hour of reperfusion after 10 mg/kg i.v. just before reperfusion; for Mortality rate (number of dogs that died / number of dogs in experiment), 2 hours of ischemia: before the drug was given (10 mg/kg i.v. just before reperfusion)
Method: as §1, §2

[3] = system: liver ischemia-reperfusion model using rats; assay: Adenine nucleotides in hepatic vein immediately after starting reperfusion; conditions: rat; 50 mg/kg i.v.
Method: Male Wister rats weighing 250-300 g were fasted with free access to water 24 hours before the experiment. Seventy-two rats were divided into three groups of 24 animals each, i.e., the control group, the GSH administration group and the γ-GCE-administration group. Each rat was anesthetized by intraperitoneal administration of 40 mg/0.8 ml/kg of sodium pentobarbital, and the femoral vein was cannulated. In the GSH group and the γ-GCE group, 50 mg/kg of GSH or γ-GCE respectively were administered intravenously. Physiological saline was then infused for volume replacement in each group, as a continuous intravenous infusion at a rate of 0.8 ml/hr with an injection pump throughout the experiment. Thirty minutes after starting injection of physiological saline, the abdomon was opened by a midline incision and the liver hilus was exposed. According to the method described by Hasselgren, et al. in J. Surg. Res., Vol. 34, pp. 409-414, 1984, all vessels to the left and median lobes of the liver, more specifically, hepatic artery, portal vein and the bile duct, were clamped to produce an ischemic state for 2 hours. Since blood vessels to the remaining parts of the liver were not occluded by this method, poral stasis could be avoided which was of special relevance for circulation stability in rats. Thereafter, occlusion of all vessels was released by removing the clamp to allow reperfusion for 1 hour. The abdominal walls were closed during ischemia and reperfusion. […]
Evaluation of ischemia-reperfusion injury was performed by measuring liver tissue (1) mitochondrial function, (2) glutathione concentration, (3) adenine nucleotides concentration, and (4) lipid peroxide concentration, as well as liver tissue derived (5) adenine nucleotides concentration in the hepatic vein immediately after starting reperfusion, and (6) liver cell enzyme activities in the blood after 1 hour of reperfusion. More specifically, the mitochondrial function in (1) was measured according to the method described by Chance, et al. in Adv. […] In addition, the quantitative determination of glutathione in (2) was performed using the same method as Experiment 1 on supernatant obtained by adding 10 vol/g of tissue weight of 2.5% (w/v) sulfosalicylic acid dihydrate aqueous solution to the liver tissue followed by homogenization and centrifugation. In addition, the quantitative determination of adenine nucleotides in (3) was performed by neutralizing the perchloric acid extract of the liver tissue with potassium hydroxide followed by removal of the precipitate and applying to an ion exchange HPLC column according to the method described by Sugino, et al. in J. Chromatogr., Vol. 361, pp. 427-431, 1986. […]

[4] = system: cardiac muscle mitochondria; assay: Cardiac muscle mitochondrial function (St. III O2, RCI) after coronary ischemia-reperfusion; conditions: dog; 10 mg/kg i.v. just before reperfusion; FIGS. 1A and 1B
Excerpt: Electrocardiogram electrodes were attached, and monitoring and recording were continued throughout the experiment. Following insertion of cannulas in the right femoral vein and right femoral artery, the cannulas were used for continuous intravenous drip of physiological saline to replenish water or administration of the test preparation, and monitoring of arterial blood pressure, respectively. After performing left thoracotomy in the fourth or fifth intercostal space, the pericardium was torn to expose the heart. Ischemia was induced by ligating the left anterior descending coronary artery immediately distal to the first diagonal branch, while reperfusion was performed by subsequently removing that ligation. The animals were divided into four groups. […] Mitochondria was obtained by removing the heart immediately after the end of ischemia or reperfusion, washing with cold physiological saline, promptly cutting out the ischemic or reperfused area and the normal area, and immediately performing preparation from the respective area according to the method described by […], et al. in Arch. Biochem. Biophys., Vol. 94, pp. 148-155, 1961. The glutathione content of the mitochondria was measured by applying the method described by Tietze in Anal. […] Evaluation of mitochondrial function was performed according to the method described by Sugiyama, et al. in Am. […]

[5] = 10 mg/kg i.v. just before reperfusion

Structure (SMILES) | Number of Ventricular Premature Beats, 1 Hour of Reperfusion [1] | Total Duration of Ventricular Tachycardia, 1 Hour of Reperfusion [1] | effect on total duration of ventricular tachycardia during reperfusion [1] | occurrence of arrhythmia (ventricular premature beats) during reperfusion [1] | Number of Ventricular Premature Beats, 2 Hours of Ischemia [1] | Total Duration of Ventricular Tachycardia, 2 Hours of Ischemia [1] | animals died due to ventricular fibrillation during reperfusion [2, 5] | Mortality rate (number of dogs that died / number of dogs in experiment), 1 hour of reperfusion [2] | Mortality rate (number of dogs that died / number of dogs in experiment), 2 hours of ischemia [2] | Adenine nucleotides concentration in hepatic vein immediately after starting reperfusion [3] | effect on leakage of adenine nucleotides into the hepatic vein [3] | effect on reduction in cardiac muscle mitochondrial function (St. III O2, RCI) during reperfusion [4] | mortality rate during reperfusion [2, 5] | reduction of leakage of adenine nucleotides into the hepatic vein immediately after starting reperfusion [3]
N[C@@H](CCC(=O)N[C@@H](CS)C(=O)NCC(=O)O)C(=O)O [GSH, reduced glutathione, reference compound] | 1731 ± 1574 | 983 ± 959 s | did not show such effect whatsoever | not suppressed at all | 42 ± 43 | 1 ± 2 s | ca. 50% | 7/15 | 1/16 | 3.59 ± 1.28 μmol/L serum | did not significantly mitigate the leakage | no protective effects were observed whatsoever |  | 
CCOC(=O)[C@H](CS)NC(=O)CC[C@H](N)C(=O)O [γ-GCE, γ-L-glutamyl-L-cysteine ethyl ester] | 32 ± 30 | 3 ± 5 s | remarkably suppressed its increase during reperfusion | strikingly suppressed | 40 ± 51 | 1 ± 2 s |  | 0/8 | 2/10 | 1.96 ± 0.80 μmol/L serum |  | completely suppressed | 0 | over 50%
